{"source": "patent US8133472B2", "about": "“Cyclopeptides containing RGD mimetics as imaging markers for integrins” (Siemens Medical Solutions USA, Inc., priority 2008, dated 2012)", "key": {"[1]": {"target": "T1, Integrin αvβ3 expressing U87MG cells (Homo sapiens, UniProt P05106+P06756)", "T1 construct": "Integrin αvβ3 expressing U87MG cells; endogenous in cells; host or cells: U87MG", "test": "Cell-based integrin receptor-binding competition assay against fluorescent compound 21", "settings": "10 nM compound 21, 2 hrs, FIG. 4", "method": "After incubation, cells were washed three times to eliminate unbound cyclic peptides. Fluorescence readings (RLU) were then taken (excitation at 491 nm, emission at 518 nm, cutoff 515 nm). Fluorescence signals of wells without cyclic peptides were set as 100% and used as control. […] All treatments were carried out in triplicates."}, "integrin αvβ3 [2]": {"target": "T2, integrin αvβ3 (Homo sapiens, UniProt P05106+P06756)", "test": "Binding affinity to integrin αvβ3, summary statements (FIG. 1-4)", "settings": "general statement", "method": "Compound 20 was immobilized onto a CM5 chip (Supplier: Biacore. CM5 is a SPR chip with a carboxymethylated dextran covalently attached to a gold surface) via amine coupling. Intergrin αvβ3 samples at 50 nM concentration, premixed with a wide range of concentrations of RGD test compound (0˜2000 nM), were flowed through the CM5 chip at 14° C.\nThe interactions between the flowing integrin αvβ3 sample and the surface of the chip were recorded by Biacore sensorgram signals. Flow cell #1 served as blank control and the flow cell #2 were coated with compound 20. After subtraction the blank signal of flow cell #1 from the signal of flow cell #2, the resulting sensorgram signals from each cycle were converted into percentage values and the Kd and IC50 values for each cyclopeptides were calculated.\nInhibitory effects of cyclic peptides were quantified by measuring their effects on the interactions between immobilized integrin and biotinylated soluble ligand. Integrin αvβ3 was immobilized on a 96 well plate. […] The wells were incubated with alkaline-phsphatase substrate and the intensities of yellow color product were measured in plate reader. […]\nIntegrin αvβ3 expressing U87MG cells were incubated with a series of concentration of cyclic peptides (0.01, 0.1, 1, 10, 100, 1000, 10000 nM) in the presence of 10 nM of green fluorescence labeled compound 21 for 2 hrs. […]"}, "FIG. 5": {"test": "FIG. 5", "method": "Table printed on a drawing sheet, FIG. 5\nThe patent's description of the figure: FIG. 5 is a microPET imaging of Compound 19 in a U87MG xenograft mouse model at 1 hour post-injection.\nFirst reader's note: Tissue uptake from the microPET image beside the table; rows are the right-side (RS) tumor, the left-side (LS) tumor and muscle."}, "[3]": {"tested_on": "U87MG human glioblastoma tumor xenograft", "assay_type": "in vivo, mouse", "method": "PET Studies: In vivo microPET imaging of a tumor-bearing mouse is performed on an anesthetized mouse bearing tumor xenograft of U87MG human glioblastoma after administration of the test imaging cyclic peptides. Animals are induced with 5% isoflurane/oxygen until anesthetized and then maintained on 2-2.5% isoflurane/oxygen inhalation for the duration of each PET scanning procedure (up to 2 hours). Anesthetized animals are placed on a heated pad for the duration of each PET scan. Animals are scanned at 1 hour post-injection for 30 min."}, "integrin αvβ3 [4]": {"target": "T2, integrin αvβ3", "settings": "background statement; cited from earlier work"}, "[5]": {"settings": "cited from earlier work"}, "M21 melanoma xenograft": {"tested_on": "M21 melanoma xenograft", "settings": "integrin-positive M21 melanoma xenograft; cited from earlier work"}, "[6]": {"tested_on": "A431 human squamous cell carcinoma model", "settings": "integrin negative cell line A431; cited from earlier work"}, "tumor": {"tested_on": "tumor", "settings": "in vivo, cited from earlier work"}, "[7]": {"settings": "comparison among cyclic peptides 4, 1 and RGDfK"}, "[8]": {"settings": "comparison of cyclic peptides 18 and 23"}}, "note": "Values joined by “and” are separate entries in the source; they are usually repeats but may differ in a detail not shown here. Equal values may be shown once. Non-standard residues stand in square brackets, D forms with d. Residues, ends and D or L forms follow the SMILES beside them. *: point of attachment. X1 = O=C(Cn1cc(CCCF)nn1)NCC1OC(C(=O)*)C(O)C(O)C1O"}
{"compound": "N=C(N)NCCC[C@@H]1NC(=O)[C@H](CCCCN)NC(=O)[C@@H](Cc2ccccc2)NC(=O)[C@H](CC(=O)O)NC(=O)[C@H](CO)NC1=O", "note": "[Compound 1] (cyclo(D[dF]KRS))", "values": [{"measurement": "potency (competition of binding)", "setting": "[1]; [7]", "result": "very similar in potency"}]}
{"compound": "C[C@@H]1NC(=O)[C@H](CCCNC(=N)N)NC(=O)[C@H](CCCCN)NC(=O)[C@@H](Cc2ccccc2)NC(=O)[C@H](CC(=O)O)NC1=O", "note": "[Compound 4] (cyclo(RAD[dF]K))", "values": [{"measurement": "potency (competition of binding)", "setting": "[1]; [7]", "result": "very similar in potency"}, {"measurement": "binding affinity to integrin αvβ3", "setting": "integrin αvβ3 [2]", "result": "high binding affinity"}]}
{"compound": "C[C@@H]1NC(=O)[C@H](CCCNC(=N)N)NC(=O)[C@H](CCCCNC(=O)C2OC(CNC(=O)Cn3cc(CCCF)nn3)C(O)C(O)C2O)NC(=O)[C@@H](Cc2ccccc2)NC(=O)[C@H](CC(=O)O)NC1=O", "note": "(some centres unmarked) [Compound 18] (cyclo(AD[dF]K(X1)R))", "values": [{"measurement": "potency (competition of binding)", "setting": "[1]; [8]", "result": "very similar in potency"}, {"measurement": "binding affinity to integrin αvβ3", "setting": "integrin αvβ3 [2]", "result": "high binding affinity"}]}
{"compound": "C[C@@H]1NC(=O)[C@H](CCCNC(=N)N)NC(=O)[C@H](CCCCNC(=O)C2O[C@H](CNC(=O)Cn3cc(CCC[18F])nn3)[C@H](O)C(O)[C@@H]2O)NC(=O)[C@@H](Cc2ccccc2)NC(=O)[C@H](CC(=O)O)NC1=O", "note": "(some centres unmarked) [Compound 19]", "values": [{"measurement": "%ID/g", "setting": "FIG. 5", "result": "0.042 %ID/g and 0.034 %ID/g and 0.025 %ID/g"}, {"measurement": "tumor uptake and retention", "setting": "[3]; microPET, 1 hour post-injection, FIG. 5", "result": "good tumor uptake and retention"}, {"measurement": "wash-out rate from muscle and other healthy tissues", "setting": "[3]; mouse, in vivo", "result": "fast wash-out rate"}]}
{"compound": "C[C@@H]1NC(=O)[C@H](CCCNC(=N)N)NC(=O)[C@H](CCCCNC(=O)CCN(CCC(=O)NCCCC[C@@H]2NC(=O)[C@@H](Cc3ccccc3)NC(=O)[C@H](CC(=O)O)NC(=O)[C@H](C)NC(=O)[C@H](CCCNC(=N)N)NC2=O)C(=O)CCOCCOCCOCCOCCNC(=O)n2cc(CCCF)nn2)NC(=O)[C@@H](Cc2ccccc2)NC(=O)[C@H](CC(=O)O)NC1=O", "note": "[Compound 23]", "values": [{"measurement": "potency (competition of binding)", "setting": "[1]; [8]", "result": "very similar in potency"}]}
{"compound": "CC([18F])C(=O)NC[C@H]1OC(C(=O)NCCCC[C@@H]2NC(=O)[C@@H](Cc3ccccc3)NC(=O)[C@H](CC(=O)O)NC(=O)CNC(=O)[C@H](CCCNC(=N)N)NC2=O)[C@@H](O)C(O)C1O", "note": "(some centres unmarked) [[^18F]Galacto-RGD]", "values": [{"measurement": "integrin binding affinity", "setting": "integrin αvβ3 [4]", "result": "relatively low integrin binding affinity"}, {"measurement": "tumor standard uptake values", "setting": "[5]; background statement", "result": "modest tumor standard uptake values"}, {"measurement": "tracer accumulation in organs", "setting": "[5]; both preclinical models and human studies", "result": "prominent tracer accumulation in the liver, kidneys, spleen, and intestines"}, {"measurement": "tumor uptake", "setting": "M21 melanoma xenograft", "result": "integrin αvβ3-specific tumor uptake"}, {"measurement": "tracer localization", "setting": "[6]", "result": "did not localize on tumor cells"}]}
{"compound": "c(RGDyV)", "values": [{"measurement": "tumor uptake", "setting": "tumor; 125I-labeled peptide", "result": "receptor-specific tumor uptake"}, {"measurement": "excretion", "setting": "tumor", "result": "unfavorable hepatobiliary excretion"}, {"measurement": "tumor washout", "setting": "tumor", "result": "rapid tumor washout"}]}
